Assays:
[1] = target: T1, 3-phosphoglycerate kinase (Sus scrofa, UniProt Q7SIB7); details: Tompa 1986; Vas 1990; Szilagyi 1998; cited from earlier work
T1 sequence (Q7SIB7 1-417): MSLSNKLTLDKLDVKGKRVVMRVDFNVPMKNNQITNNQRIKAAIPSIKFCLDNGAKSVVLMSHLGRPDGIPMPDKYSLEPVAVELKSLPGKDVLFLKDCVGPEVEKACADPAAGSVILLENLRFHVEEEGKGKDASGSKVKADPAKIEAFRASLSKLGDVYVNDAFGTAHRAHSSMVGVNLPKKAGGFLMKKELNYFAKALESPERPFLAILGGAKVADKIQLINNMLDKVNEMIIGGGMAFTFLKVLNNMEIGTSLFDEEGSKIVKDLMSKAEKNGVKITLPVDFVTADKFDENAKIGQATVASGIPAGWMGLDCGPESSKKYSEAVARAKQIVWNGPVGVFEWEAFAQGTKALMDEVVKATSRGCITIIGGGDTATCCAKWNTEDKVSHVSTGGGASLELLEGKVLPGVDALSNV

[2] = target: T2, propionyl-CoA transferase from Ralstonia eutropha (PCTRe), wild type, SEQ ID NO: 12 (Cupriavidus necator, UniProt Q0K874); details: 37° C., pH 7.5, 2 mM acetyl-CoA, 10-800 mM glycolate; n=3
T2 sequence (Q0K874 1-542): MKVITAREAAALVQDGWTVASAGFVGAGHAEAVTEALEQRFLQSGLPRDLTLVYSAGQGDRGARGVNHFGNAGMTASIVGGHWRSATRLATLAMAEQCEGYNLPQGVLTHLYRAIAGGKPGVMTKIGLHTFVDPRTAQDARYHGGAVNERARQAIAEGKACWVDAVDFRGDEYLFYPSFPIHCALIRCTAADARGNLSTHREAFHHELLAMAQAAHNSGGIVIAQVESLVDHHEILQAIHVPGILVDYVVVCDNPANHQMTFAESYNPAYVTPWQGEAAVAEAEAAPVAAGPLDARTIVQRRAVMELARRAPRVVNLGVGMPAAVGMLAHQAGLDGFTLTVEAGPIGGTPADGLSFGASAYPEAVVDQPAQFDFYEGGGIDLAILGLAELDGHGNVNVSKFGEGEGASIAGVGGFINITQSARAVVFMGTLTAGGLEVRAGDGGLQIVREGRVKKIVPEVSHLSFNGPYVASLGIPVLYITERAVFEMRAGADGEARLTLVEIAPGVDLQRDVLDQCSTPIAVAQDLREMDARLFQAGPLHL

[3] = target: T3, malonyl-CoA reductase from Chloroflexus aurantiacus (MCRCa), SEQ ID NO: 8 (Chloroflexus aurantiacus, UniProt Q6QQP7); details: read-out: apparent Km value for malonyl-CoA; Hügler et al., 2002; cited from earlier work
T3 sequence (Q6QQP7 1-1220): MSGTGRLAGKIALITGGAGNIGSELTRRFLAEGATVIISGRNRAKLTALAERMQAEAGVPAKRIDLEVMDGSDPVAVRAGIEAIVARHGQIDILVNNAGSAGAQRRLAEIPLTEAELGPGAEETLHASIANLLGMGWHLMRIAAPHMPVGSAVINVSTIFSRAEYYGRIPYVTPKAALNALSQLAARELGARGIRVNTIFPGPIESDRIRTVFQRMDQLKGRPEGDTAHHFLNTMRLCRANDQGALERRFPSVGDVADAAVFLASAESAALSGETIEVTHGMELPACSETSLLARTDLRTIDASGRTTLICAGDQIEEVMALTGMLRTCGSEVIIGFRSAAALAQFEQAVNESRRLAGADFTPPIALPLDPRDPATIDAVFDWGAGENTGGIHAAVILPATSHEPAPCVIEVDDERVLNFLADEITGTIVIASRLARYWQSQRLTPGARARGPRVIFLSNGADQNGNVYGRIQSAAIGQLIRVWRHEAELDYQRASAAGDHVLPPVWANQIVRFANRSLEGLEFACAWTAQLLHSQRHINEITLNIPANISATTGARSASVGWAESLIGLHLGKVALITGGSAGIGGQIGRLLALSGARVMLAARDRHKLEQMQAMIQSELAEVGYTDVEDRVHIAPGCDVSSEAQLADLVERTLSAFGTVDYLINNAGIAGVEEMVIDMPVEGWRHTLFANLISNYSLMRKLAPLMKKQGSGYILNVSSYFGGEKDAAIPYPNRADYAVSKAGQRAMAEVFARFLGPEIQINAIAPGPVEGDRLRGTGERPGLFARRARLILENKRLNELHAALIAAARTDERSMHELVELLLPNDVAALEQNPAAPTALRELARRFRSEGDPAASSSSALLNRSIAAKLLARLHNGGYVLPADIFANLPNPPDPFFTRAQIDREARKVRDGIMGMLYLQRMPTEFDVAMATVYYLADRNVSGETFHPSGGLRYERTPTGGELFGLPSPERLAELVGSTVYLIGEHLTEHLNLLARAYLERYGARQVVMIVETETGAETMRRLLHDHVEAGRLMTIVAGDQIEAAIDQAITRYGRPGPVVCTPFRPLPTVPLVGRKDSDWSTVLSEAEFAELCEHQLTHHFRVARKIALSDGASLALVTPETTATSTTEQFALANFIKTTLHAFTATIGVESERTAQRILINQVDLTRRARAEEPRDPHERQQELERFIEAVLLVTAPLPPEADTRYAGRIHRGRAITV

tartronyl-CoA = assay: malonyl-CoA reductase spectrophotometric assay, NADPH oxidation at 365 nm, tartronyl-CoA into glycerate (reactions 4# and 5); type: biochemical; details: 0.25 mM tartronyl-CoA, 37° C.
Protocol: The kinetics of the MCRCa enzyme for enzymatically converting the substrate tartonyl-CoA into glycerate (via reactions 4# and 5 both catalyzed by MCRCa) were determined spectrophotometrically at 365 nm following the oxidation of NADPH. Per molecule tartronyl-CoA, two molecules of NADPH are oxidized by MCRCa (a first in reaction 4# and a second in reaction 5) The measurements were carried out at 37° C. in a total reaction volume of 200 μL containing 100 mM MOPS buffer (with 5 mM MgCl2, pH 7.5) with an initial NADPH concentration of 0.4 mM NADPH and 23 μg MCRCa.
An alternative enzyme for catalyzing the conversion of tartonyl-CoA into glycerate (via reactions 4# and 5) is the MCR from Erythrobacter sp. NAP1 (MCRE). It was tested for its activity with malonyl-CoA and for tartronyl-CoA with the assay described above for MCRCa.

malonyl-CoA = details: 0.3 mM substrate, 37° C., Kröger et al. 2011; cited from earlier work
glycolyl-CoA = assay: MCRCa coupled assay: glycolyl-CoA carboxylation by PCC coupled to two step reduction to glycerate by MCRCa (reactions 3#, 4#, 5), HPLC-hrMS and NADPH absorption; type: biochemical; details: tartronyl-CoA produced by PCCMe_D407I_Y143H
Protocol: In addition to the above mentioned assays also another assay was performed in which the formation of tartronyl-CoA from glycolyl-CoA (reaction 3#) by the PCCMe_D407I_Y143H enzyme was directly coupled to its subsequent two step reduction via tartronate-semialdehyde (reaction 4#) to glycerate (reaction 5) by use of the purified MCRCa (Kröger et al., 2011, loc. cit.). The reaction mixture (300 μL) contained 200 mM NH4HCO3 buffer, pH 7.7, 5 mM MgCl2, 1 mM ATP, 0.4 mM NADPH, 43 μg PCCMe_D407I_Y143H, and 184 μg of MCRCa.
To determine whether MCRCa was able to catalyze the two step reduction of tartonyl-CoA to glycerate (via tartronic semialdehyde), samples of the reaction mixture were withdrawn after all of the NADPH was consumed. The samples were stopped with formic acid (5% final concentration). The acidified samples were centrifuged at 4° C. and 17 000×g and the supernatants were analyzed by HPLC-hrMS.
The formation of glycerate was analyzed using an Agilent 6550 iFunnel Q-TOF LC-MS system equipped with an electrospray ionization source set to negative ionization mode. […]
LC-MS data were analyzed using MassHunter Qualitative Analysis software (Agilent). […] In such assays the tartronate semialdehyde can be covalently derivatized with phenylhydrazine to a phenylhydrazone, which can be detected by its absorbance at 324 nm and confirmed by its corresponding mass spectrum. […]

Molecule: O=C(O)COP(=O)(O)O [2-PG, 2-phosphoglycolate]
- type of inhibition of 3-phosphoglycerate kinase [1]: competitive inhibitor

Molecule: O=C(O)CO [glycolate]
- vmax [2]: 1.3 ± 0.07 U mg^−1

Molecule: CC(C)(COP(=O)(O)OP(=O)(O)OC[C@H]1O[C@@H](n2cnc3c(N)ncnc32)[C@H](O)[C@@H]1OP(=O)(O)O)[C@@H](O)C(=O)NCCC(=O)NCCSC(=O)CC(=O)O [malonyl-CoA]
- Km [3]: 30 µM

B1: MCRCa: malonyl-CoA reductase of Chloroflexus aurantiacus, NCBI accession no. AAS20429.1, SEQ ID NO: 8 (protein, listed as Chloroflexus aurantiacus)
chain: T3 sequence (Q6QQP7 1-1220)
modifications: [CDS]1..3663 from SEQ ID NO 7
- specific activity with tartronyl-CoA (tartronyl-CoA): 0.6 U mg^−1
- specific activity with malonyl-CoA (malonyl-CoA): approximately 7 U mg^−1
- reduction of tartronyl-CoA to glycerate (HPLC-hrMS) (glycolyl-CoA): able to reduce the tartronyl-CoA, produced by PCCMe_D407I_Y143H, to glycerate
